Reference: patent US10874650B1 (Ferrer Medical Innovations, LLC, priority 2020, dated 2020)
Structures can show the parent of a compound that is named as a salt. Marks after values point to notes of the source that are not given here.

Key:
[1] = tested on: SARS-CoV-2, USA-WA1/2020 strain; type: cell-based; settings: nasal spray 90%, ethanol 67.5%
[2] = tested on: avian H7N9 influenza virus; settings: mice; cited from earlier work
[3] = tested on: divergent influenza A strains and influenza B strain; settings: cited from earlier work

CCO [Ethanol]
Virus Titer ([1]; after 25 minutes incubation with virus at 22±2° C., average of three replicates ± standard deviation): 1.0 ± 0.6 Log10 CCID50/mL
Log Reduction Value ([1]; reduction of virus compared with virus control (water), 25 minutes incubation at 22±2° C.): 3.2***

CN(C)CCC(c1ccc(Cl)cc1)c1ccccn1 (stereo not shown) [Chlorpheniramine, chlorpheniramine maleate]
protection from fatal challenge [2]: protects mice from fatal challenge
inhibitory activity against influenza [3]: potent inhibitory activity
